Counter-ions that a name gives are not always drawn.
Biological target: T1, human Cot/Tpl2 kinase (Homo sapiens, UniProt P41279)
T1 construct: human Cot/Tpl2 kinase construct encoding residues 30-398; 6His (N); made in house; host or cells: Sf9 insect cells (baculovirus system, BD Biosciences)
Assay: Tpl2/Cot kinase assay, GST-MEK1 phosphorylation detected by ELISA (DELFIA Eu)
Format: biochemical
Details: Table 1; 0.4 nM Tpl2, 35 nM GST-MEK1, 50 uM ATP, 1 h at 30° C.
Method: Sf9 cells expressing the kinase were lysed in 50 mM NaPhosphate pH=8; 300 mM NaCl; 5 mM imidazole; 0.1 mM EGTA; 25 mM beta-glycerophosphate; 1% TX-100, 1% glycerol; 6 mM beta-mercaptoethanol and protease inhibitors. The lysate was clarified by centrifugation and was loaded onto a Ni-Sepharose column. The column was washed with 50 mM NaPhosphate pH=8; 300 mM NaCl; 15 mM imidazole; 1% glycerol; and 6 mM beta-mercaptoethanol. His-Tpl2 was eluted with 50 mM NaPhosphate pH=8; 300 mM NaCl; 250 mM imidazole; 1% glycerol; and 6 mM beta-mercaptoethanol. The eluted protein was further purified by size exclusion chromatography. Fractions corresponding to monomeric Tpl2 were then used in the assay.
Tpl2/Cot activity was directly assayed using GST-MEK1 as a substrate. GST-MEK1 phosphorylation on serine residues 217 and 221 was detected by ELISA. 0.4 nM Tpl2 was incubated with 35 nM GST-MEK1 in a kinase reaction buffer containing 20 mM MOPS pH=7.2; 50 uM ATP; 20 mM MgCl2; 1 mM DTT; 25 mM β-glycerophosphate; 5 mM EGTA; and 1 mM sodium orthovanadate for 1 h at 30° C. The compounds of the inventions solubilized in 100% DMSO were pre-diluted in assay buffer so that the final concentration of DMSO in the reaction was 1%. The kinase reaction was carried out in 100 ul volume on 96 well plates. The kinase reaction was then stopped with the addition of 100 mM EDTA. […] After a 1 hour incubation at room temperature, the detection plate was washed 4 times with TBST (TBS+0.05% Tween 20) and then incubated for another hour at room temperature with anti phospho-MEK1 antibody (Cell Signaling) 1:1000 in 10 mM MOPS 7.5; 150 mM NaCl; 0.05% Tween 20; 0.1% Gelatin; 0.02% NaN3; and 1% BSA. The detection plate was washed again and incubated for 30 min with DELFIA Europium (Eu) labeled goat anti-rabbit IgG (Perkin-Elmer), 1:4000 in the same buffer used for the primary incubation. After a final wash, Eu detection solution was added to each well and the Eu signal was measured in a Wallac Victor^2 Multilabel Counter. IC50 calculations were preformed using the XLfit software package (IDBS, Guildford, UK).

T1 sequence (P41279 30-398): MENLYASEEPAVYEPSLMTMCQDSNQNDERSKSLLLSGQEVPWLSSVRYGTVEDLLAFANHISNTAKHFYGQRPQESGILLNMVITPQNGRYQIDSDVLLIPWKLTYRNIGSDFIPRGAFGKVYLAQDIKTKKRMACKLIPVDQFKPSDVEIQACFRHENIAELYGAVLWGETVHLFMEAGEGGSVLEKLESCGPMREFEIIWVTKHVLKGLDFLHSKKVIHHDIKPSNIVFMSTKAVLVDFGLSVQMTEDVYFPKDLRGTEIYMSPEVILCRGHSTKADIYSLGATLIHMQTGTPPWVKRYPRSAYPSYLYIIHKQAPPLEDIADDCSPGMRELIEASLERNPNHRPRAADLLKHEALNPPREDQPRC

Row | SMILES | IC50 [nM]
1 | N#Cc1cnc2cnc(NCCN3CCOCC3)cc2c1Nc1cccc(Oc2ccccc2)c1 [Example 2, 6-(2-morpholinoethylamino)-4-(3-phenoxyphenylamino)-1,7-naphthyridine-3-carbonitrile] | 11600
2 | N#Cc1cnc2cnc(NCCN3CCOCC3)cc2c1Nc1ccc(F)cc1 [Example 4, 4-(4-fluorophenylamino)-6-(2-morpholinoethylamino)-1,7-naphthryidine-3-carbonitrile] | 10700
3 | N#Cc1cnc2cnc(NCCN3CCOCC3)cc2c1Nc1ccc(Br)cc1 [Example 5, 4-(4-bromophenylamino)-6-(2-morpholinoethylamino)-1,7-naphthyridine-3-carbonitrile] | > 40000
4 | N#Cc1cnc2cnc(NCCN3CCOCC3)cc2c1Nc1ccc(Nc2ccccc2)cc1 [Example 10, 6-(2-morpholinoethylamino)-4-(4-(phenylamino)phenylamino)-1,7-naphthyridine-3-carbonitrile] | 7600
5 | N#Cc1cnc2cnc(NCc3cccnc3)cc2c1Nc1cccc(Oc2ccccc2)c1 [Example 15, 4-(3-phenoxyphenylamino)-6-(pyridin-3-ylmethylamino)-1,7-naphthyridine-3-carbonitrile] | > 40000
6 | N#Cc1cnc2cnc(NCc3cccnc3)cc2c1Nc1ccc(Cl)cc1 [Example 16, 4-(4-chlorophenylamino)-6-(pyridin-3-ylmethylamino)-1,7-naphthyridine-3-carbonitrile] | > 10000
7 | N#Cc1cnc2cnc(NCc3cccnc3)cc2c1Nc1ccc(Br)cc1 [Example 17, 4-(4-bromophenylamino)-6-(pyridin-3-ylmethylamino)-1,7-naphthyridine-3-carbonitrile] | > 10000
8 | N#Cc1cnc2cnc(NCc3cccnc3)cc2c1Nc1ccc(Nc2ccccc2)cc1 [Example 18, 4-(4-(phenylamino)phenylamino)-6-(pyridin-3-ylmethylamino)-1,7-naphthyridine-3-carbonitrile] | > 10000
9 | N#Cc1cnc2cnc(NCCN3CCOCC3)cc2c1Nc1ccc(C(=O)c2ccccc2)cc1 [Example 27, 4-(4-benzoylphenylamino)-6-(2-morpholinoethylamino)-1,7-naphthyridine-3-carbonitrile] | 4600
10 | Cc1cccc(Nc2c(C#N)cnc3cnc(NCc4cccnc4)cc23)c1 [Example 29, 4-(3-methylphenylamino)-6-(pyridin-3-ylmethylamino)-1,7-naphthyridine-3-carbonitrile] | > 40000
11 | COC(=O)c1ccc(Nc2c(C#N)cnc3cnc(NCc4cccnc4)cc23)cc1 [Example 30, Methyl 4-(3-cyano-6-(pyridin-3-ylmethylamino)-1,7-naphthyridin-4-ylamino)benzoate] | > 40000
12 | COc1ccc(Nc2c(C#N)cnc3cnc(NCCN4CCOCC4)cc23)cc1 [Example 31, 4-(4-methoxyphenylamino)-6-(2-morpholinoethylamino)-1,7-naphthyridine-3-carbonitrile] | > 40000
13 | N#Cc1cnc2cnc(NCc3cccnc3)cc2c1Nc1cccc(OC(F)(F)F)c1 [Example 32, 6-(pyridin-3-ylmethylamino)-4-(3-(trifluoromethoxy)phenylamino)-1,7-naphthyridine-3-carbonitrile] | > 40000
14 | N#Cc1cnc2cnc(NCc3cccnc3)cc2c1Nc1ccc(OC(F)(F)F)cc1 [Example 33, 6-(pyridin-3-ylmethylamino)-4-(4-(trifluoromethoxy)phenylamino)-1,7-naphthyridine-3-carbonitrile] | > 40000
15 | N#Cc1cnc2cnc(N)cc2c1Nc1ccc(F)c(Cl)c1 [Example 35, 6-amino-4-[(3-chloro-4-fluorophenyl)amino]-1,7-naphthyridine-3-carbonitrile] | 5000

Compounds with a lower IC50, results first:

Row | IC50 [nM] | SMILES
16 | 50 | N#Cc1cnc2cnc(NCc3cccnc3)cc2c1Nc1ccc(F)c(Cl)c1 [Example 1, 4-(3-chloro-4-fluorophenylamino)-6-(pyridin-3-ylmethylamino)-1,7-naphthyridine-3-carbonitrile]
17 | 1160 | N#Cc1cnc2cnc(NCCN3CCOCC3)cc2c1Nc1cccc(Cl)c1 [Example 3, 4-(3-chlorophenylamino)-6-(2-morpholinoethylamino)-1,7-naphthyridine-3-carbonitrile]
18 | 8 | N#Cc1cnc2cnc(NCCN3CCOCC3)cc2c1Nc1ccc(Cc2ccccc2)cc1 [Example 7, 4-(4-benzylphenylamino)-6-(2-morpholinoethylamino)-1,7-naphthyridine-3-carbonitrile]
19 | 1700 | N#Cc1cnc2cnc(NCc3cccnc3)cc2c1Nc1ccc(F)cc1 [Example 9, 4-(4-fluorophenylamino)-6-(pyridin-3-ylmethylamino)-1,7-naphthyridine-3-carbonitrile]
20 | 6 | N#Cc1cnc2cnc(NCCN3CCOCC3)cc2c1Nc1ccc(Sc2ccccc2)cc1 [Example 11, 6-(2-morpholinoethylamino)-4-(4-(phenylthio)phenylamino)-1,7-naphthyridine-3-carbonitrile]
21 | 65 | N#Cc1cnc2cnc(NCc3cccnc3)cc2c1Nc1cccc(Cl)c1 [Example 12, 4-(3-chlorophenylamino)-6-(pyridin-3-ylmethylamino)-1,7-naphthyridine-3-carbonitrile]
22 | 3600 | N#Cc1cnc2cnc(NCCN3CCOCC3)cc2c1Nc1ccc(F)c(F)c1 [Example 13, 4-(3,4-difluorophenylamino)-6-(2-morpholinoethylamino)-1,7-naphthryidine-3-carbonitrile]
23 | 17 | N#Cc1cnc2cnc(NCc3cccnc3)cc2c1Nc1ccc(Cc2ccccc2)cc1 [Example 14, 4-(4-benzylphenylamino)-6-(pyridin-3-ylmethylamino)-1,7-naphthryidine-3-carbonitrile]
24 | 9 | N#Cc1cnc2cnc(NCc3cccnc3)cc2c1Nc1ccc(Sc2ccccc2)cc1 [Example 19, 4-(4-(phenylthio)phenylamino)-6-(pyridin-3-ylmethylamino)-1,7-naphthyridine-3-carbonitrile]
25 | 290 | N#Cc1cnc2cnc(NCc3cccnc3)cc2c1Nc1ccc(F)c(F)c1 [Example 20, 4-(3,4-difluorophenylamino)-6-(pyridin-3-ylmethylamino)-1,7-naphthyridine-3-carbonitrile]
26 | 9.6 | CN(C)CCCNc1cc2c(Nc3ccc(Cc4ccccc4)cc3)c(C#N)cnc2cn1 [Example 21, 4-(4-benzylphenylamino)-6-(3-(dimethylamino)propylamino)-1,7-naphthyridine-3-carbonitrile]
27 | 79 | CN1CCN(CCCNc2cc3c(Nc4ccc(Cc5ccccc5)cc4)c(C#N)cnc3cn2)CC1 [Example 22, 4-(4-benzylphenylamino)-6-(3-(4-methylpiperazin-1-yl)propylamino)-1,7-naphthyridine-3-carbonitrile]
28 | 36 | CN(C)CCNc1cc2c(Nc3ccc(Cc4ccccc4)cc3)c(C#N)cnc2cn1 [Example 23, 4-(4-benzylphenylamino)-6-(2-(dimethylamino)ethylamino)-1,7-naphthyridine-3-carbonitrile]
29 | 1120 | N#Cc1cnc2cnc(NCCN3CCOCC3)cc2c1Nc1cccc(F)c1 [Example 24, 4-(3-fluorophenylamino)-6-(2-morpholinoethylamino)-1,7-naphthyridine-3-carbonitrile]
30 | 38 | N#Cc1cnc2cnc(NCCN3CCNCC3)cc2c1Nc1ccc(Cc2ccccc2)cc1 [Example 25, 4-(4-benzylphenylamino)-6-(2-(piperazin-1-yl)ethylamino)-1,7-naphthyridine-3-carbonitrile, hydrochloride salt]

From US20060276498A1 (Wyeth, priority 2005, published 2006)
